From the Kinase Knowledgebase extract (Sharma et al. 2016)

Biological target: MAPK14 (human) (UniProt Q16539)
Assay: Assessment of MAPK14 Kinase Activity

Chain of MAPK14 (human) (Q16539 whole entry, looked up): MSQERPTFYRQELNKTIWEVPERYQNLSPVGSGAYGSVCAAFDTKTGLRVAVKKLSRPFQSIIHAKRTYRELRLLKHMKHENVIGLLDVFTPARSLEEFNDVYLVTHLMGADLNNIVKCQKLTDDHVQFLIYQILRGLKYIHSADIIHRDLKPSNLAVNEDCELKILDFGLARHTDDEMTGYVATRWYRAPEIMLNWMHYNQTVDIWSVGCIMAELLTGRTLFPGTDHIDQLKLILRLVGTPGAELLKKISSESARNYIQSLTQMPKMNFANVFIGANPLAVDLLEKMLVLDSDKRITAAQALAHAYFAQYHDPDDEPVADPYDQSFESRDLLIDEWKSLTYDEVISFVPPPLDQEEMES

Row | Compound | IC50 [nM]
1 | CONC(=O)c1ccc(C)c(-n2ncc(C(=O)c3cccc(I)c3)c2N)c1 | < 1000
2 | CCOC(=O)c1cnn(-c2cc(C(=O)NC3CC3)ccc2C)c1N | < 1000
3 | Cc1ccc(C(=O)NC2CC2)cc1-n1ncc(C(=O)c2cccc(-c3nnco3)c2)c1N | < 1000
4 | Cc1ccc(C(=O)NC2CC2)cc1-n1cnc(C(=O)C2CCOCC2)c1N | < 1000
5 | Cc1ccc(C(=O)NC2CC2)cc1-n1cnc(C(=O)c2ccccn2)c1N | < 1000
6 | Cc1ccc(C(=O)O)cc1-n1ncc(C(=O)c2ccccc2)c1N | 1000 to 10000
7 | Cc1ccc(C(=O)NC2CC2)cc1-n1ncc(C(=O)c2cccc(C3OCCO3)c2)c1N | < 1000
8 | Cc1ccc(-c2nnc[nH]2)cc1-n1ncc(C(=O)c2ccccc2)c1N | < 1000
9 | CONC(=O)c1ccc(C)c(-n2ncc(C(=O)c3ccccc3)c2N)c1 | < 1000
10 | CCOC(=O)c1c(C)nn(-c2cc(C(=O)NC3CC3)ccc2C)c1N | < 1000
11 | Cc1ccc(C(=O)NC2CC2)cc1-n1ncc(C(=O)c2cccc(CO)c2)c1N | < 1000
12 | Cc1ccc(C(=O)NC2CC2)cc1-n1ncc(C(=O)c2cccc(C#N)c2)c1N | < 1000
13 | Cc1ccc(C(=O)NC2CC2)cc1-n1ncc(C(=O)NC2CCc3ccccc32)c1N (configuration not stated) | < 1000
14 | Cc1ccc(C(=O)NC2CC2)cc1-n1ncc(C(=O)NC2CCCCC2C)c1N (configuration not stated) | < 1000
15 | COc1nn(-c2cc(C(=O)NC3CC3)ccc2C)c(N)c1C(=O)c1ccccc1 | < 1000
16 | Cc1ccc(C(=O)NC2CC2)cc1-n1nc(OCCOCc2ccccc2)c(C(=O)c2ccccc2)c1N | < 1000

More lines, now with the values ahead:

Row | IC50 [nM] | Compound
17 | < 1000 | Cc1ccc(C(=O)NC2CC2)cc1-n1ncc(C(=O)c2cccc(I)c2)c1N
18 | < 1000 | Cc1ccc(C(=O)NC2CC2)cc1-n1nc(OC2CCN(C(=O)OC(C)(C)C)CC2)c(C(=O)c2ccccc2)c1N
19 | < 1000 | Cc1ccc(C(=O)NC2CC2)cc1-n1ncc(C(=O)NCC(C)(C)C)c1N
20 | < 1000 | Cc1ccc(C(=O)NC2CC2)cc1-n1ncc(C(=O)c2cccc(C=O)c2)c1N
21 | < 1000 | Cc1ccc(C(=O)NC2CC2)cc1-n1ncc(C(=O)c2ccccc2)c1N
22 | 1000 to 10000 | Cc1ccc(C(=O)O)cc1-n1ncc(C(=O)c2cccc(I)c2)c1N
23 | < 1000 | Cc1ccc(C(=O)NC2CC2)cc1-n1cnc(C(=O)c2ccc3c(c2)OCO3)c1N
24 | < 1000 | CCOC(=O)c1c(OCC(=O)NCc2cccc(Cl)c2)nn(-c2cc(C(=O)NC3CC3)ccc2C)c1N
25 | < 1000 | Cc1ccc(C(=O)NC2CC2)cc1-n1ncc(C(=O)c2cccc(OCC(O)CO)c2)c1N (configuration not stated)
26 | < 1000 | Cc1ccc(C(=O)NC2CC2)cc1-n1cnc(C(=O)C2CCCCC2)c1N
27 | < 1000 | Cc1ccc(C(=O)NC2CC2)cc1-n1ncc(C(=O)Nc2ccccc2)c1N
